Measured values published in patent publication US20210253562A1, “ACYLSUFONAMIDE COMPOUNDS USEFUL AS EP3 RECEPTOR ANTAGONISTS” (Janssen Pharmaceutica NV, priority 2018, published 2021).
Where two headings read alike, the source gives them in different places.

Key:
[1] = biological target: T1, EP3 membrane (EP3 receptor) (Homo sapiens, UniProt P43115); experiment: [3H]-PGE2 binding; EP3 competition binding (SPA)
T1 construct: purchased Millipore HTS092M
T1 sequence (P43115 1-390): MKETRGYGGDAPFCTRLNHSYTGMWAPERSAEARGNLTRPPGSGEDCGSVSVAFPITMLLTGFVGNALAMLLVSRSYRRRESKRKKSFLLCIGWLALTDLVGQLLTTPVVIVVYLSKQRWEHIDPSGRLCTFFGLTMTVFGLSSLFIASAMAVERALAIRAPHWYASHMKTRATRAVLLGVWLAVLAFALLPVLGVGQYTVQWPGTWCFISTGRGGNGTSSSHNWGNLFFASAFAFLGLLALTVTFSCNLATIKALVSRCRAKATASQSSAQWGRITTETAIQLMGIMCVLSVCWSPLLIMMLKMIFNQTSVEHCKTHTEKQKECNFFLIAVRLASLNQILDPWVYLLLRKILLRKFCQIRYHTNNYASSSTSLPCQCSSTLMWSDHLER
Procedure, shortened: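 SPA competition at room temperature, 2 h: EP3 membranes 2 μg/well, 2 nM [3H]-PGE2, 0.1% DMSO, in Tris/MgCl2/EDTA buffer pH 7.4. Compounds in 1:3 serial dilution; scintillation read; Ki by one-site nonlinear fit.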

[2] = biological target: T2, CHO cells over-expressing the EP3 receptor (Homo sapiens, UniProt P43115); experiment: CHO cell cAMP assay; EP3 cAMP antagonist dose response (sulprostone reference), HTRF; assay type: cell-based; conditions: sulprostone 700 nM (EC80) and FSK 2 μM (EC70); read-out: CHO_cAMP IC50
T2 construct: expressed in transfected cells; host or cells: CHO cells
T2 sequence (P43115 1-390): T1 sequence (P43115 1-390)
Procedure, shortened: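 EP3-overexpressing CHO cells pre-incubated with test compound, then stimulated 30 min at 37 °C with FSK (2 μM, EC70) plus sulprostone (700 nM, EC80); antagonism seen as restored cAMP. cAMP measured by HTRF 665/615 ratio, converted via on-plate standard curve. IC50 from Hill fit of 11-point dosing.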

| SMILES | Ki [1] | IC50 [2] | Ki ([1]; unit nM) |
| --- | --- | --- | --- |
| COc1ccc(S(=O)(=O)NC(=O)NC/C=C2\COCc3cnn(Cc4ccc(Cl)cc4Cl)c32)cc1 [Compound #62, (Z)—N-((2-(1-(2,4-dichlorobenzyl)-1,4-dihydropyrano[4,3-c]pyrazol-7(6H)-ylidene)ethyl)carbamoyl)-4-methoxybenzenesulfonamide] | 63 nM | 0.245 µM | – |
| COc1cccc(S(=O)(=O)NC(=O)NC/C=C2\COCc3cnn(Cc4ccc(Cl)cc4Cl)c32)c1 [Compound #63, (Z)—N-((2-(1-(2,4-dichlorobenzyl)-1,4-dihydropyrano[4,3-c]pyrazol-7(6H)-ylidene)ethyl)carbamoyl)-3-methoxybenzenesulfonamide] | 44 nM | 0.121 µM | – |
| COc1ccc(F)cc1S(=O)(=O)NC(=O)NC/C=C1\COCc2cnn(Cc3ccc(Cl)cc3Cl)c21 [Compound #64, (Z)—N-((2-(1-(2,4-dichlorobenzyl)-1,4-dihydropyrano[4,3-c]pyrazol-7(6H)-ylidene)ethyl)carbamoyl)-5-fluoro-2-methoxybenzenesulfonamide] | 12 nM | 0.081 µM | – |
| CC(C)S(=O)(=O)NC(=O)CC/C=C1\CCCc2cnn(Cc3ccc(Cl)cc3Cl)c21 [Compound #69, (E)-4-(1-(2,4-dichlorobenzyl)-1,4,5,6-tetrahydro-7H-indazol-7-ylidene)-N-(isopropylsulfonyl)butanamide] | 179 nM | 0.118 µM | – |
| O=C(NC/C=C1\CC(F)(F)Cc2cnn(-c3cccc(C(F)(F)F)c3)c21)NS(=O)(=O)c1ccc(Cl)cc1 [Compound #70, (E)-4-chloro-N-((2-(5,5-difluoro-1-(3-(trifluoromethyl)phenyl)-1,4,5,6-tetrahydro-7H-indazol-7-ylidene)ethyl)carbamoyl)benzenesulfonamide] | 1000 nM | 8.2 µM | – |
| O=C(NC/C=C1\CCCc2cnn(-c3cccc(Br)c3)c21)NS(=O)(=O)c1cc(Cl)c(Cl)s1 [Compound #77, (E)-N-((2-(1-(3-bromophenyl)-1,4,5,6-tetrahydro-7H-indazol-7-ylidene)ethyl)carbamoyl)-4,5-dichlorothiophene-2-sulfonamide] | 12 nM | 0.258 µM | – |
| CC(C)Cn1ncc2c1/C(=C/CNC(=O)NS(=O)(=O)c1ccc(Cl)cc1)CCC2 [Compound #80, (E)-4-chloro-N-((2-(1-isobutyl-1,4,5,6-tetrahydro-7H-indazol-7-ylidene)ethyl)carbamoyl)benzenesulfonamide] | 920 nM | 4.4 µM | – |
| O=C(NS(=O)(=O)c1ccc(Cl)cc1)OC/C=C1\c2c(cnn2Cc2ccc(Cl)cc2Cl)CCC1(F)F [Compound #81, (E)-2-(1-(2,4-dichlorobenzyl)-6,6-difluoro-1,4,5,6-tetrahydro-7H-indazol-7-ylidene)ethyl ((4-chlorophenyl)sulfonyl)carbamate] | > 10000 nM | 14.1 µM | – |
| O=C(NS(=O)(=O)c1ccc(Cl)cc1)OC/C=C1/c2c(cnn2Cc2ccc(Cl)cc2Cl)CCC1(F)F [Compound #82, (Z)-2-(1-(2,4-dichlorobenzyl)-6,6-difluoro-1,4,5,6-tetrahydro-7H-indazol-7-ylidene)ethyl ((4-chlorophenyl)sulfonyl)carbamate] | 106 nM | 2.6 µM | – |
| O=C(NC/C(F)=C1\COCc2cnn(Cc3ccc(Cl)cc3Cl)c21)NS(=O)(=O)c1ccc(Cl)cc1 [Compound #83, (E)-4-chloro-N-((2-(1-(2,4-dichlorobenzyl)-1,4-dihydropyrano[4,3-c]pyrazol-7(6H)-ylidene)-2-fluoroethyl)carbamoyl)benzenesulfonamide] | 97 nM | 0.266 µM | – |
| O=C(NC/C=C1\CCCc2cn(Cc3ccc4ccccc4c3)nc21)NS(=O)(=O)c1cc(Cl)c(Cl)s1 [Compound #87, (E)-4,5-dichloro-N-((2-(2-(naphthalen-2-ylmethyl)-2,4,5,6-tetrahydro-7H-indazol-7-ylidene)ethyl)carbamoyl)thiophene-2-sulfonamide] | 110 nM | 0.435 µM | – |

Molecules with a lower IC50 [2], results first:

| Ki [1] | IC50 [2] | Ki ([1]; unit nM) | SMILES |
| --- | --- | --- | --- |
| 26 nM | 0.074 µM | – | COc1ccc(S(=O)(=O)NC(=O)NC/C=C2\COCc3cnn(Cc4ccc(Cl)cc4Cl)c32)cn1 [Compound #67, (Z)—N-((2-(1-(2,4-dichlorobenzyl)-1,4-dihydropyrano[4,3-c]pyrazol-7(6H)-ylidene)ethyl)carbamoyl)-6-methoxypyridine-3-sulfonamide] |
| 28 nM | 0.069 µM | – | O=C(NC/C(F)=C1\CCCc2cnn(Cc3ccc(Cl)cc3Cl)c21)NS(=O)(=O)c1ccc(Cl)cc1 [Compound #86, (Z)-4-chloro-N-((2-(1-(2,4-dichlorobenzyl)-1,4,5,6-tetrahydro-7H-indazol-7-ylidene)-2-fluoroethyl)carbamoyl)benzenesulfonamide] |
| 27 nM | 0.044 µM | – | COc1ccc(Cl)c(S(=O)(=O)NC(=O)NC/C=C2\COCc3cnn(Cc4ccc(Cl)cc4Cl)c32)c1 [Compound #65, (Z)-2-chloro-N-((2-(1-(2,4-dichlorobenzyl)-1,4-dihydropyrano[4,3-c]pyrazol-7(6H)-ylidene)ethyl)carbamoyl)-5-methoxybenzenesulfonamide] |
| 27 nM | 0.032 µM | – | COc1ccc(F)c(S(=O)(=O)NC(=O)NC/C=C2\COCc3cnn(Cc4ccc(Cl)cc4Cl)c32)c1 [Compound #68, (Z)—N-((2-(1-(2,4-dichlorobenzyl)-1,4-dihydropyrano[4,3-c]pyrazol-7(6H)-ylidene)ethyl)carbamoyl)-2-fluoro-5-methoxybenzenesulfonamide] |
| 35 nM | 0.031 µM | – | CN(C/C(F)=C1\COCc2cnn(Cc3ccc(Cl)cc3Cl)c21)C(=O)NS(=O)(=O)c1cc(Cl)c(Cl)s1 [Compound #74, (E)-4,5-dichloro-N-((2-(1-(2,4-dichlorobenzyl)-1,4-dihydropyrano[4,3-c]pyrazol-7(6H)-ylidene)-2-fluoroethyl)(methyl)carbamoyl)thiophene-2-sulfonamide] |
| 4 nM | 0.021 µM | – | COc1ccc(Cl)cc1S(=O)(=O)NC(=O)NC/C=C1\COCc2cnn(Cc3ccc(Cl)cc3Cl)c21 [Compound #66, (Z)-5-chloro-N-((2-(1-(2,4-dichlorobenzyl)-1,4-dihydropyrano[4,3-c]pyrazol-7(6H)-ylidene)ethyl)carbamoyl)-2-methoxybenzenesulfonamide] |
| 1 nM | 0.01 µM | – | O=C(NC/C=C1\CCCc2cnn(-c3cccc4ccccc34)c21)NS(=O)(=O)c1cc(Cl)c(Cl)s1 [Compound #78, (E)-4,5-dichloro-N-((2-(1-(naphthalen-1-yl)-1,4,5,6-tetrahydro-7H-indazol-7-ylidene)ethyl)carbamoyl)thiophene-2-sulfonamide] |
| 2 nM | 0.009 µM | – | O=C(NC/C=C1\CCCc2cnn(-c3cccc(-c4ccc(F)cc4)c3)c21)NS(=O)(=O)c1cc(Cl)c(Cl)s1 [Compound #76, (E)-4,5-dichloro-N-((2-(1-(4′-fluoro-[1,1′-biphenyl]-3-yl)-1,4,5,6-tetrahydro-7H-indazol-7-ylidene)ethyl)carbamoyl)thiophene-2-sulfonamide] |
| 3 nM | 0.005 µM | – | O=C(NC/C=C1/c2c(cnn2Cc2ccc(Cl)cc2Cl)CCC1F)NS(=O)(=O)c1ccc(Cl)cc1 (stereo not drawn) [Compound #73, (Z)-4-chloro-N-((2-(1-(2,4-dichlorobenzyl)-6-fluoro-1,4,5,6-tetrahydro-7H-indazol-7-ylidene)ethyl)carbamoyl)benzenesulfonamide] |
| 1 nM | 0.005 µM | – | O=C(NC/C=C1\CCCc2cnn(-c3ccc(Cl)cc3Cl)c21)NS(=O)(=O)c1cc(Cl)c(Cl)s1 [Compound #84, (E)-4,5-dichloro-N-((2-(1-(2,4-dichlorophenyl)-1,4,5,6-tetrahydro-7H-indazol-7-ylidene)ethyl)carbamoyl)thiophene-2-sulfonamide] |
| 1 nM | 0.004 µM | – | O=C(NC/C=C1\CCCc2cnn(-c3ccc(Br)cc3)c21)NS(=O)(=O)c1cc(Cl)c(Cl)s1 [Compound #75, (E)-N-((2-(1-(4-bromophenyl)-1,4,5,6-tetrahydro-7H-indazol-7-ylidene)ethyl)carbamoyl)-4,5-dichlorothiophene-2-sulfonamide] |
| – | 0.004 µM | 0.4 nM | O=C(NC/C=C1\CCCc2cnn(-c3ccc(C(F)(F)F)cc3)c21)NS(=O)(=O)c1cc(Cl)c(Cl)s1 [Compound #85, (E)-4,5-dichloro-N-((2-(1-(4-(trifluoromethyl)phenyl)-1,4,5,6-tetrahydro-7H-indazol-7-ylidene)ethyl)carbamoyl)thiophene-2-sulfonamide] |
| – | 0.002 µM | 0.4 nM | O=C(NC/C=C1\CCCc2cnn(-c3ccc4ccccc4c3)c21)NS(=O)(=O)c1cc(Cl)c(Cl)s1 [Compound #79, (E)-4,5-dichloro-N-((2-(1-(naphthalen-2-yl)-1,4,5,6-tetrahydro-7H-indazol-7-ylidene)ethyl)carbamoyl)thiophene-2-sulfonamide] |
